13 molecules from US10435405B2, “Pyrazolopyridine compounds and uses thereof” (Incyte Corporation, priority 2016, dated 2019) can be followed below.

Molecules are shown by their SMILES.

Chain of HPK1 (Q92918 1-346): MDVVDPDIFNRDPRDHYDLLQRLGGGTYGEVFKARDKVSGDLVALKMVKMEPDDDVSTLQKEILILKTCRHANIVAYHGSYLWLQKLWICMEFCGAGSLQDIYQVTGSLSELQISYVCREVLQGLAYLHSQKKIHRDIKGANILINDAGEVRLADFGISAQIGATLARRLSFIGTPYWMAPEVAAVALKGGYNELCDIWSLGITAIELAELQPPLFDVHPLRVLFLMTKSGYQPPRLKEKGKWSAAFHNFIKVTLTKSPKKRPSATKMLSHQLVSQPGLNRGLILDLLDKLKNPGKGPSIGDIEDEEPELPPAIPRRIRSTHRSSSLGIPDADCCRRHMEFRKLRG

In this test the target is HPK1 (Homo sapiens (Human), UniProt Q92918). In words: HPK1 Kinase Binding Assay. On the procedure:
A stock solution of 1 mM test compound was prepared in DMSO. The compound plate was prepared by 3-fold and 11-point serial dilutions. 0.1 μL of the compound in DMSO was transferred from the compound plate to the white 384 well polystyrene plates. The assay buffer contained 50 mM HEPES, pH 7.5, 0.01% Tween-20, 5 mM MgCl2, 0.01% BSA, and 5 mM DTT. 5 μl of 4 nM active HPK1 (SignalChem M23-11G) prepared in the buffer was added to the plate. The enzyme concentration given was based on the given stock concentration reported by the vender. 5 μl of 18 nM tracer 222 (ThermoFisher PV6121) and 4 nM LanthaScreen Eu-Anti GST antibody (ThermoFisher PV5595) were added. After one hour incubation at 25° C., the plates were read on a PHERAstar FS plate reader (BMG Labtech). Ki values were determined.
`CNC1CCc2c1cc(C)c(-c1cc3c(-c4cnn(C)c4)n[nH]c3cn1)c2F` (stereo not shown) [Example 220, 4-Fluoro-N,6-dimethyl-5-(3-(1-methyl-1H-pyrazol-4-yl)-1H-pyrazolo[3,4-c]pyridin-5-yl)-2,3-dihydro-1H-inden-1-amine] came in with a Ki of no more than 100 nM.
Take `Cn1cc(-c2n[nH]c3cnc(-c4c(F)cc(NC(=O)CN5C6CCC5CC6)cc4F)cc23)cn1` [Example 68, 2-(7-Azabicyclo[2.2.1]heptan-7-yl)-N-(3,5-difluoro-4-(3-(1-methyl-1H-pyrazol-4-yl)-1H-pyrazolo[3,4-c]pyridin-5-yl)phenyl)acetamide]: the Ki was no more than 100 nM.
On to `CNC(=O)c1ccc(-c2n[nH]c3cnc(-c4c(F)cc5c(c4F)C(NC)CC5)cc23)cc1` (stereo not shown) [Example 204, 4-(5-(4,6-Difluoro-3-(methylamino)-2,3-dihydro-1H-inden-5-yl)-1H-pyrazolo[3,4-c]pyridin-3-yl)-N-methylbenzamide], for which the Ki was no more than 100 nM.
The molecule `CNC(=O)c1ccc(-c2n[nH]c3cnc(-c4c(F)cccc4OC)cc23)cn1` [Example 101, 5-(5-(2-Fluoro-6-methoxyphenyl)-1H-pyrazolo[3,4-c]pyridin-3-yl)-N-methylpicolinamide] had a Ki of no more than 100 nM.
Consider `COc1cc(NC(=O)OC2CCN(C)CC2)cc(F)c1-c1cc2c(-c3cnn(C)c3)n[nH]c2cn1` [Example 76, 1-Methylpiperidin-4-yl 3-fluoro-5-methoxy-4-(3-(1-methyl-1H-pyrazol-4-yl)-1H-pyrazolo[3,4-c]pyridin-5-yl)phenylcarbamate], for which the Ki is no more than 100 nM.
Then `COc1cccc(F)c1-c1cc2c(NC(=O)c3ccc(F)cc3)n[nH]c2cn1` [Example 5, 4-Fluoro-N-(5-(2-fluoro-6-methoxyphenyl)-1H-pyrazolo[3,4-c]pyridin-3-yl)benzamide], with no more than 100 nM; and `Cn1cc(-c2n[nH]c3cnc(-c4c(F)ccc(CCNC5CCOCC5)c4F)cc23)cn1` [Example 98, N-(2,4-Difluoro-3-(3-(1-methyl-1H-pyrazol-4-yl)-1H-pyrazolo[3,4-c]pyridin-5-yl)phenethyl)tetrahydro-2H-pyran-4-amine], with no more than 100 nM.
`Cn1cc(-c2n[nH]c3cnc(-c4c(F)ccc5c4CCCC5N)cc23)cn1` (stereo not shown) [Example 210, 6-Fluoro-5-(3-(1-methyl-1H-pyrazol-4-yl)-1H-pyrazolo[3,4-c]pyridin-5-yl)-1,2,3,4-tetrahydronaphthalen-1-amine] yielded a Ki of no more than 100 nM.
`COC1CN(C(=O)c2cc(F)c(-c3cc4c(-c5cnn(C)c5)n[nH]c4cn3)c(F)c2)C1` [Example 58, (3,5-Difluoro-4-(3-(1-methyl-1H-pyrazol-4-yl)-1H-pyrazolo[3,4-c]pyridin-5-yl)phenyl)(3-methoxyazetidin-1-yl)methanone]: the Ki was no more than 100 nM.
For the molecule `CNCc1cc(C)c(-c2cc3c(-c4cnn(C)c4)n[nH]c3cn2)c(F)c1` [Example 168, 1-(3-Fluoro-5-methyl-4-(3-(1-methyl-1H-pyrazol-4-yl)-1H-pyrazolo[3,4-c]pyridin-5-yl)phenyl)-N-methylmethanamine], the Ki was no more than 100 nM.
As for `Cn1cc(-c2n[nH]c3cnc(-c4c(F)cc5c(c4F)C(N)CC5)c(F)c23)cn1` (stereo not shown) [Example 216, 5,7-Difluoro-6-(4-fluoro-3-(1-methyl-1H-pyrazol-4-yl)-1H-pyrazolo[3,4-c]pyridin-5-yl)-2,3-dihydro-1H-inden-1-amine], the Ki was no more than 100 nM.
Molecule `CNC(=O)c1ccc(-c2n[nH]c3cnc(-c4c(C)cc(C5CCCN5)cc4F)cc23)cc1` (stereo not shown) [Example 170, 4-(5-(2-Fluoro-6-methyl-4-(pyrrolidin-2-yl)phenyl)-1H-pyrazolo[3,4-c]pyridin-3-yl)-N-methylbenzamide] registered a Ki of no more than 100 nM.
`Cc1cccc(C)c1-c1cc2c(-c3ccc(N4CCN(C)CC4)cc3)n[nH]c2cn1` [Example 45, 5-(2,6-Dimethylphenyl)-3-(4-(4-methylpiperazin-1-yl)phenyl)-1H-pyrazolo[3,4-c]pyridine] displayed a Ki of no more than 100 nM.

The term Ki denotes the equilibrium dissociation constant of an inhibitor or competing ligand from its target. A low value points to tighter binding.
